Laboratory results published in patent US20140243401A1, “METHODS OF SCREENING COMPOUNDS THAT ARE CYTOTOXIC TO TUMOR CELLS AND METHODS OF TREATING TUMOR CELLS USING SUCH COMPOUND” (The Johns Hopkins University, priority 2010, published 2014).
In brackets after ≈: the same amount, converted by molar mass.

Experiments:
[1] = system: MCF7 human breast cancer cells; experiment: XTT cytotoxicity assay, MCF7; assay type: cell-based; settings: Homo sapiens, MCF7, XTT, MCF-7; for CC50: read-out: LC50 (the source's name)
Procedure: (§1) Cytotoxicity can be easily measured using XTT assays, which provide an indication of mitochondrial activity. The XTT assay is a non-radioactive alternative for the [^51Cr] release cytotoxicity assay. XTT is a tetrazolium salt that is reduced to a formazan dye only by metabolically active, viable cells. The reduction of XTT is measured spectrophotometrically as OD490-OD650. Thus, cells that are actively metabolizing will form reaction product when subjected to XTT measurement.
(§2) For this experiment, cells were cultured under standard culture conditions. MCF7 human breast cancer cells were cultured in DMEM containing 5 mM glucose medium with 10% fetal calf serum, 0.01 mg/ml insulin and 1% penicillin/streptomycin. To measure the cytotoxicity of specific compounds against cancer cells, 9×10^3 MCF7 cells were plated per well in 96-well plates. Following overnight culture, the compounds, dissolved in DMSO, were added to the wells in 1 μl volume at specified concentrations. Vehicle controls were run for each experiment. Each condition was run in triplicate. After 24 to 72 h of incubation, cells were incubated for 4 hours with the XTT reagent as per manufacturer's instructions (Cell Proliferation Kit II (XTT) Roche Diagnostics, New Jersey). Plates were read at OD490 on a PerkinElmer Victor 1420. Three wells containing the XTT reagent without cells served as the plate blank. XTT data were reported as OD490.
MCF7 human breast cancer cells were cultured in DMEM containing 1 mM or 5 mM glucose in the medium with 10% fetal calf serum, 0.01 mg/ml insulin and 1% penicillin/streptomycin. The cells were grown in two oxygen conditions, normoxia (21% 02) or hypoxia (1% 02). To measure the cytotoxicity of specific compounds against cancer cells, 9×10^3 MCF7 cells were plated per well in 96-well plates. Following overnight culture, the compounds, dissolved in DMSO, were added to the wells in 1 μl volume at specified concentrations. After 24 to 72 h of incubation, cells were incubated for 4 h with the XTT reagent as per manufacturer's instructions (Cell Proliferation Kit II (XTT) Roche Diagnostics, New Jersey). Plates were read at OD490 on a PerkinElmer Victor 1420. Three wells containing the XTT reagent without cells served as the plate blank. XTT data were reported as OD490Vehicle controls were run for each experiment. Each condition was run in triplicate.

MCF7 cells = experiment: 14C-acetate incorporation into lipids in MCF7 cells; assay type: cell-based, human; settings: Homo sapiens; MCF7 cells, second experiment
Procedure: (§3) MCF7 human breast cancer cells (a cell line which overexpresses FAS) were cultured in DMEM containing 5 mM glucose medium with 10% fetal calf serum, 0.01 mg/ml insulin and 1% penicillin/streptomycin. For measurement of fatty acid synthesis cells were cultured in 24-well plates at 5×10^4 per well and incubated overnight. Fatty acid synthesis was assayed by a 2 h pulse of [U^14C]acetate, 1 μCi/well, followed by Folch extraction and scintillation counting. Test compounds were added with the addition of drugs as described. Controls were treated with DMSO alone.
as §3, with “cells” for “cells (a cell line which overexpresses FAS)”, “containing 1 mM or” for “containing”, “glucose in the” for “glucose”, “penicillin/streptomycin. The cells were grown in two oxygen conditions, normoxia (21% 02) or hypoxia (1% 02).” for “penicillin/streptomycin.”, “counting” for “counting. Test compounds were added”

[2] = system: SKOV3 human ovarian cancer cells; experiment: JC-1 staining, mitochondrial membrane potential in SKOV3 cells; assay type: cell-based; settings: SKOV3, drug in DMSO applied 30 min prior to staining
From the text: JC-1 staining is an indicator of mitochondrial membrane potential; with this assay, mitochondria within cells stained with this fluorescent dye emit a wavelength in the red spectrum when mitochondrial membrane potential is intact. When mitochondria are depolarized, the wavelength of the spectrum emitted changes to green. Therefore, the ratio of red/green fluorescence will give an indication of the intactness of the membrane potential of mitochondria, and thus mitochondrial function.
The left panels show granular red-staining indicating mitochondria with intact membrane potential is brightest in control, and decreases with increasing concentrations of C31. Conversely, the right panels show the diffuse cytoplasmic green-staining which indicates mitochondrial depolarization, is dimmest in control and brightest at the highest concentration of C31 tested. Drug was solubilized in DMSO and applied for 30 min prior to staining.

[3] = system: HCT116 human colon cancer xenograft; experiment: tumor xenograft size, HCT116; assay type: in vivo, Athymic Nude mice; settings: Study 101707, HCT-116, oral b.i.d. 16 days
Procedure: Xenograft studies were performed using various mmFAS inhibitors disclosed herein. Human cancer xenograft studies are known in the art. (See Pizer et al., Cancer Res. 56:1189-1193, 1996; Pizer et al., Cancer Res. 60: 213-218, 2000; Testa et al., Oncogene 24: 7455-7464, 2005).
In particular, C31 mouse efficacy studies were conducted in order to evaluate anti-neoplastic activity of C31 in vivo. Athymic Nude mice were implanted with HCT116 human colon, SKOV3 human ovarian or OVCAR3 human ovarian cancer cell lines and were treated when the grown tumor xenografts reached at least 150 to 200 mm^3.^1 ^1 Compounds were solubilized in TEP (80% polyethylene glycol (PEG) 400, 10% ethanol, 10% tween-80) in a volume of 50 μL.

[4] = system: Human ovarian cancer (OVCAR); experiment: XTT cytotoxicity assay, OVCAR; assay type: cell-based; settings: for CC50: read-out: LC50 (the source's name)
Procedure: (See, e.g., Rothman, S., J Clin. Pathol. 39: 672-676, 1986). For example, to measure the cytotoxicity of a test compound against cancer cells, cells (e.g., SKOV-3 cells or OVCAR-3) are plated in 96-well plates. Following overnight culture, the compound is added to the cells at specified concentrations. After 72 hours of incubation, cells are incubated for 4 hours with the XTT reagent as per manufacturer's instructions (Cell Proliferation Kit II (XTT) Roche Diagnostics, New Jersey), and the amount of color produced by viable cells is measured spectrophotometrically. […] is calculated by linear regression, plotting the color produced in treated cells as percent of control (untreated) cells versus drug concentrations.
as §1, §2

[5] = system: Human colon cancer (HCT116); experiment: XTT cytotoxicity assay, HCT116; assay type: cell-based; settings: for IC50: HCT-116; for CC50: HCT-116, read-out: LC50 (the source's name)
mitochondrial FAS = experiment: 14C-malonate incorporation into mitochondrial fatty acids, mitochondria isolated from rat liver; assay type: biochemical; settings: FIG. 3
Procedure: Mammalian mitochondrial FAS activity may be determined in a variety of ways. For example, [14C]malonate may be added to isolated mitochondria, fatty acids are extracted, and then radioactivity is tested. (See Zhang et al., J. Bio. Chem. 278(41): 40067-40074, 2003; Mikolajczyk, J. and Brody, S., Eur. J. Biochem. 187: 431-437, 1990). The mitochondria are purified using methods known in the art. (See Qiagen's Qproteome Mitochondria Isolation Kit; Methods in Enzymology, Vol. 10, Chapter 11, 1967). To test the inhibition of mmFAS activity, a test compound is added to the reaction mixture. Therefore, a test compound may be screened according the methods described herein as follows: (i) isolating mitochondria; (ii) incubating mitochondria with [14C]malonate with and without a test compound; and (iii) determining the quantity of lipids and/or fatty acids produced. By comparing the amount of product in the presence of the test compound to the amount in its absence, the degree of inhibition can be determined.
Mitochondria from MCF7 cells were prepared following manufacturer's protocol (Mitochondria Isolation Kit, Sigma, Saint Louis, Mo.). Rat liver mitochondria were isolated by homogenization with a tissue homogenizer in H-medium (220 mM mannitol, 70 mM sucrose, 2 mM HEPES, and 0.5 g/L of fatty acid free bovine serum albumin, pH 7.4). The homogenate was centrifuged at 1100 g for 3 min and washed twice with H-medium. The supernatants were pooled and centrifuged at 6800 g for 15 min. The pellet was then rinsed again and centrifuged at 3000 g for 3 min. The mitochondria supernatants were saved. The sediments were resuspended in H-medium and centrifuged at 3000 g for 3 min. The mitochondria supernatants were combined and centrifuged at 20,000 g for 15 min. The resulting mitochondria pellet were rinsed and centrifuged again at 20,000 g for 20 min.
Isolated mitochondria (100-200 μg) were mixed with 50 mM TES-KOH (pH 7.2), 10 mM MgCl2, 0.3 M sorbitol, 0.1% BSA, 1 mM each of ATP, ADP, NADH, NADPH, CoA, DTT and 1 μCi of [2-^14C]malonic acid (50 mCi/mmol) in a total volume of 200 μl. The reaction was performed for 30 min at room temperature. C31, Riv7d or vehicle were added at the beginning of this reaction. At the end of 30 minutes, the mitochondria pellet was separated from supernatant by centrifugation at 14000 rpm for 5 min. After washing with 500 μl of 50 mM TES-KOH (pH 7.2) and 0.3 M sorbitol, the mitochondria were incubated in 200 μl of H2O and 20 μl of 10 M KOH for 15 min at 65° C. Then the samples were added with 40 μl of 5 M H2SO4 and 20 μl of 1 mM palmitic acid (in 1 M acetic acid in isopropanol). The ^14C labeled fatty acids were twice extracted with hexane and sent to scintillation counting after drying.

| Compound | IC50 [1] [µg/mL] | CC50 [1] [µM] | IC50 (MCF7 cells) [µM] | mitochondrial depolarization (JC-1 staining) [2] | Average Tumor Size Endpoint (% Change) ([3]; 53 mg/kg) | IC50 [4] [µg/mL] | CC50 [4] [µM] | IC50 [5] [µg/mL] | CC50 [5] [µM] | Average Tumor Size Endpoint (% Change) ([3]; 55 mg/kg) | IC50, inhibition of mitochondrial FAS (14C-malonate incorporation) (mitochondrial FAS; isolated mitochondria) [μg per mL] | effect on 14C-malonate incorporation into mitochondrial fatty acids (mitochondrial FAS; mitochondria isolated from rat liver) |
| --- | --- | --- | --- | --- | --- | --- | --- | --- | --- | --- | --- | --- |
| CCCCCCCCC1(C)SC(=O)C=C1OCC(=O)Nc1ccc(C(F)(F)F)cc1 (centres unmarked) [Compound C144] | 2.2 (≈ 4.96 µM) | 4.9 | > 5.6 | depolarization of the mitochondria in the SKOV3 human ovarian cancer cells which is dose-dependent | −91 | 4 (≈ 9.02 µM) | 9 | 4.8 (≈ 10.8 µM) | 10.8 |  |  |  |
| CCCCCCCCC1(C)SC(=O)C=C1OCC(=O)Nc1ccc(OC(F)(F)F)cc1 (centres unmarked) [Compound C145] | 1.8 (≈ 3.92 µM) | 3.9 | 17.8 | depolarization of the mitochondria in the SKOV3 human ovarian cancer cells which is dose-dependent |  | 3.3 (≈ 7.18 µM) | 7.2 | 3.5 (≈ 7.62 µM) | 7.6 | +236 % Change |  |  |
| Oc1cc(Cl)ccc1Oc1ccc(Cl)cc1Cl [Triclosan, triclosan, reference compound] |  |  |  |  |  |  |  |  |  |  | 3 | inhibitory effect |
